The target in one data set is Cytochrome P450 3A4 (Homo sapiens, UniProt P08684). Nature of the data set: clinical. The procedure:
Methodology: This was a Phase 1, open-label, monosequence crossover, drug-drug interaction study of RAVICTI® and midazolam in healthy male and female subjects.
Single doses of midazolam HCl syrup (2 mg/mL) were administered in the morning following an approximate 10-hour fast on Days 1 and 5 (coadministered with RAVICTI® on Day 5) just prior to administration of breakfast (˜5 minutes before breakfast).
Pharmacokinetics: Blood samples for the analysis of plasma midazolam and its metabolite (1′-OH-midazolam, free+conjugates) levels were collected via an indwelling catheter and/or via direct venipuncture. Blood samples were collected on Days 1 and 5 at the following time points: predose, 0.5, 1, 2, 3, 4, 6, 8, 10, 12, 16, and 24 hours postdose. In addition, five plasma PK samples for GPB analysis were collected on Day 4 at the following time points: at 1 minute, 30 minutes, and 1 hour following the first morning dose of RAVICTI; at 30 minutes and 1 hour post second dose of RAVICTI.
Pharmacokinetics: The possible drug-drug interaction was examined between coadministration of RAVICTI and midazolam (test) and midazolam administered alone (reference). An analysis of variance (ANOVA), with treatment as a fixed effect and subject as a random effect, was performed. Data for Cmax, AUC0-t, and AUC0-∞, as appropriate, were natural log (ln)-transformed prior to analysis. The 90% confidence intervals (CIs) of the test group means relative to the reference group means were obtained by taking the antilog of the corresponding 90% CIs for the differences between the means on the log scale, i.e., ratio of geometric least-squares (LS) means.

A short description of data set [1]: Safety and tolerability of RAVICTI co-administered with celecoxib. It is filed as in vivo, human. The procedure:
Safety: Safety and tolerability were assessed through adverse events (AEs), clinical laboratory results, physical examination findings, vital sign measurements, and electrocardiograms (ECGs).
Safety: Safety data were summarized by treatment and time point. Descriptive statistics (mean, standard deviation [SD], minimum, median, maximum, and sample size [N]) were calculated for quantitative safety data and frequency counts were compiled for classification of qualitative safety data. AE verbatim terms were mapped to preferred terms and system organ classes using the Medical Dictionary for Regulatory Activities (MedDRA®) (Version 18.0). Concomitant medications were coded with the World Health Organization (WHO) Dictionary version 1Mar. 2015.

For a further data set, the target named is T1, CYP2C8 (Homo sapiens, UniProt P10632).
T1 construct: from tissue; host or cells: human liver microsomes
T1 sequence (P10632 1-490): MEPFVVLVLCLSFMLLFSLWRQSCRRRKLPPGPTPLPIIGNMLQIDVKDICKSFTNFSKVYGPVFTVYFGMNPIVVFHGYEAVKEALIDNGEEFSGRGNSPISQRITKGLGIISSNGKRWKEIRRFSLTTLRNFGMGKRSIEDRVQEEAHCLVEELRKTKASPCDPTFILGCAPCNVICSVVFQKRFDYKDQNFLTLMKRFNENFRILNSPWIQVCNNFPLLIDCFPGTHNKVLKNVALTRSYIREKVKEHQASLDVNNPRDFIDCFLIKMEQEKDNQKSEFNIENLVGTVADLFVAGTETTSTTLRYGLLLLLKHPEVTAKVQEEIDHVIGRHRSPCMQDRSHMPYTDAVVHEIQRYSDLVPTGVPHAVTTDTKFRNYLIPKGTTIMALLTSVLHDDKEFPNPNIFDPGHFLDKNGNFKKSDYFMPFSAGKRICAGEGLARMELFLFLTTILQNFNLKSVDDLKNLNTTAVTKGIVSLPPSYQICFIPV
Briefly: In vitro CYP inhibition study, human liver microsomes, CYP2C8. It counts as in vitro ADME. As to conditions: Taxol 6α-hydroxylase, 5 mM.

[2] abbreviates: RAVICTI co-administered with celecoxib, 28 healthy subjects.

The term % Inhibition denotes the relative decrease from the control value, in per cent. Read a low % Inhibition as little suppression.

Sequence of Cytochrome P450 3A4 (P08684 whole entry): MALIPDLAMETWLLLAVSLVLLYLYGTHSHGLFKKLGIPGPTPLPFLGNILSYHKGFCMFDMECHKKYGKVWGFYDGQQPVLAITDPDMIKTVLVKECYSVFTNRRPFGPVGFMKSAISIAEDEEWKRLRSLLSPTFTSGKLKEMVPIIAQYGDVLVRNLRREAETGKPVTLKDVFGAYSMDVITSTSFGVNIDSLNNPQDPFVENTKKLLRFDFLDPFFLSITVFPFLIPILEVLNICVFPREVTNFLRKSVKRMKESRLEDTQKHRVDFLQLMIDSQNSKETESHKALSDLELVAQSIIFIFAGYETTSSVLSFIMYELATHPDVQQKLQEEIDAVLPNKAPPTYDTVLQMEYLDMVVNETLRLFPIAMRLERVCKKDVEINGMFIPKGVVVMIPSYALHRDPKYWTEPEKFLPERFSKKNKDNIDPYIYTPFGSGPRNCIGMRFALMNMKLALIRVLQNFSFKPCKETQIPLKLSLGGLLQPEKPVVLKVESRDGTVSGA

Consider `O=C(CCCc1ccccc1)OCC(COC(=O)CCCc1ccccc1)OC(=O)CCCc1ccccc1` [RAVICTI, benzenebutanoic acid, 1′,1″-(1,2,3-propanetriyl) ester], for which the “drug-drug interaction by statistical analysis of Cmax, AUC0-t and AUC0-∞” value at Cytochrome P450 3A4 (RAVICTI metabolites with midazolam and 1′-OH-midazolam, 90% CIs outside 80 to […]) is recorded as “significant drug-drug interaction”. Besides, the “effect on CYP3A4 enzyme in vivo (conclusion)” value on Cytochrome P450 3A4 (steady-state RAVICTI, healthy subjects) is recorded as “weak inducer”. Moreover, in data set [1] (setting [2]), the “deaths, SAEs, discontinuations due to AEs” value is “no deaths, SAEs, or subject discontinuations due to AEs”; the “subjects experiencing TEAEs” value was 8 subjects; the “total TEAEs” value stood at 23. Also, the “safety and tolerability (conclusion)” value in data set [1] (oral RAVICTI co-administered with celecoxib, healthy adults) is “safe and generally well tolerated”. For the same compound, the “% Inhibition” value on CYP2C8 (pre-incubation time 0 min) turned out to be 11%. Besides, on CYP2C8 (pre-incubation time 30 min), the “% Inhibition” value was 10%.

(Values after patent US20190076384A1, “METHODS FOR TREATING UREA CYCLE DISORDERS” (priority 2017, published 2019).)
